Reference: patent publication US8288552B2, “Dihydropyridone amidesas P2X7 modulators” (Roche Palo Alto LLC, priority 2008, dated 2012)

Target: T1, P2X7 (UniProt Q99572)
T1 sequence (Q99572 1-595): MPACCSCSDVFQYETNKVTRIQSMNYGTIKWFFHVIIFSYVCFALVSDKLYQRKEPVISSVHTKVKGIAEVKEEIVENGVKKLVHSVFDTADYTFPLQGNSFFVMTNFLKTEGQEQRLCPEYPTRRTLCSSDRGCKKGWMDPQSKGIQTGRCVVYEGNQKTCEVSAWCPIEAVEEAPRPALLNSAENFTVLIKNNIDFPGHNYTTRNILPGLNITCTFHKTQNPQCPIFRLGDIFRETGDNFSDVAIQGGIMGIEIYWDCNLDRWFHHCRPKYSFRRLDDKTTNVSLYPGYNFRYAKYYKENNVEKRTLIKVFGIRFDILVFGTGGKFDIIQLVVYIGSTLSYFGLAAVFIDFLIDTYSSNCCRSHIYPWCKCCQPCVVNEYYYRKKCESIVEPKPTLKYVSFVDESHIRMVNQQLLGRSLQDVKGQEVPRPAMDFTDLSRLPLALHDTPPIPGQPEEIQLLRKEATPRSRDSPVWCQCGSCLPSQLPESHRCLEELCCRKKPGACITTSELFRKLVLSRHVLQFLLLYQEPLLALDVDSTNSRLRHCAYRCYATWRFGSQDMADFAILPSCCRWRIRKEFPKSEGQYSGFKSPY
Assay: P2X7 pKi of Table 1
Assay type: cell-based
Method: Intracellular Calcium Flux (FLIPR) Assay
Compound and Reagent Preparation
Stock solutions of compounds were prepared from powders as a 10 mM DMSO stock solution. These solutions were stored at RT during the two week period of these experiments to prevent freeze-thaw of the DMSO stocks. The DMSO stocks were added to the appropriate assay buffer at a concentration of 10 μM, and then diluted serially to the final concentrations that were tested. […] The aqueous solutions of compounds as well as ATP (Sigma A7699) and BzATP (Sigma B6396) were prepared fresh for each day of experiment.
1321N1 cells stably expressing the full length human P2X7 gene (1321N1-hP2X7) and HEK293 cells stably expressing the full length rat P2X7 gene (HEK293-rP2X7) were obtained from the Roche Cell Culture Facility. 1321N1-hP2X7 cells were grown in Dulbecco's Modified Eagle's Medium (DMEM) high glucose supplemented with 10% FBS and 250 μg/mL G418. HEK293-rP2X7 cells were grown in DMEM/F-12 supplemented with 10% FBS, 1 mM CaCl2, 2 mM MgCl2, 2 mM L-Glutamine and 500 μg/ml G418. Cells were split such that they never became >70% confluent.
Intracellular Calcium Flux (FLIPR)
On the day prior to the experiment, 1321N1-hP2X7 or HEK293-rP2X7 cells were released into suspension with calcium-free PBS+Versene and washed by centrifugation with calcium-free PBS to remove the Versene. Cells were resuspended in growth medium at a density of 2.5×10^5 cells/mL and seeded into black walled, clear bottom 96 well plates (50,000 cells/well) approximately 18 hr prior to intracellular calcium flux experiments.
On the day of the experiment, plates were washed with FLIPR buffer (calcium- and magnesium-free Hank's Balanced Salt Solution (HBSS) supplemented with 10 mM Hepes, 2.5 mM probenecid and 2 mM calcium chloride) using a BIO-TEK 96 channel plate washer and incubated with […] fluo-3 dye at 37° C. for one hr. The dye was then removed by plate washing and the cells were allowed to equilibrate for 20 min at room temperature with antagonist or vehicle (FLIPR buffer). Agonist (100 μM BzATP final concentration for hP2X7; 5 μM BzATP final concentration or rP2X7) was added online with the FLIPR and fluorescence measurements made at 1 sec intervals for 60 sec followed by 3 sec intervals for a further 4 min (5 min total). A final addition of 5 μM ionomycin was made and the maximal BzATP-evoked fluorescence normalized to the maximal ionomycin-evoked fluorescence.

pKi | SMILES
7.57 | Cc1cc(C)c(Br)c(NC(=O)C2=CNC(=O)C[C@@H]2c2ccc(F)cc2)c1 [Compound 59, (R)-4-(4-Fluoro-phenyl)-6-oxo-1,4,5,6-tetrahydro-pyridine-3-carboxylic acid(2-bromo-3,5-dimethyl-phenyl)-amide]
7.755 | Cc1cc(Cl)c(OCCO)cc1NC(=O)C1=CNC(=O)CC1c1ccc(F)cc1 (stereo not shown) [Compound 61, 4-(4-Fluoro-phenyl)-6-oxo-1,4,5,6-tetrahydro-pyridine-3-carboxylic acid [4-chloro-5-(2-hydroxy-ethoxy)-2-methyl-phenyl]-amide]
6.7 | O=C1CC(c2ccc(F)cc2)C(C(=O)Nc2cc(OCCO)c(Cl)cc2Br)=CN1 (stereo not shown) [Compound 65, 4-(4-Fluoro-phenyl)-6-oxo-1,4,5,6-tetrahydro-pyridine-3-carboxylic acid[2-bromo-4-chloro-5-(2-hydroxy-ethoxy)-phenyl]-amide]
5.515 | Cc1ccc(S(N)(=O)=O)cc1NC(=O)C1=CNC(=O)CC1c1ccc(F)cc1 (stereo not shown) [Compound 67, 4-(4-Fluoro-phenyl)-6-oxo-1,4,5,6-tetrahydro-pyridine-3-carboxylic acid(2-methyl-5-sulfamoyl-phenyl)-amide]
7.425 | CCOc1cc(NC(=O)C2=CNC(=O)CC2c2cccc(F)c2)c(C)cc1Cl (stereo not shown) [Compound 70, 4-(3-Fluoro-phenyl)-6-oxo-1,4,5,6-tetrahydro-pyridine-3-carboxylic acid(4-chloro-5-ethoxy-2-methyl-phenyl)-amide]
6.815 | Cc1cc(Cl)c(OCCO)cc1NC(=O)C1=CNC(=O)C[C@@H]1c1cccc(F)c1 [Compound 71, (R)-4-(3-Fluoro-phenyl)-6-oxo-1,4,5,6-tetrahydro-pyridine-3-carboxylic acid[4-chloro-5-(2-hydroxy-ethoxy)-2-methyl-phenyl]-amide]
7.8375 | Cc1cc(Cl)c(OCCO)cc1NC(=O)C1=CNC(=O)C[C@H]1c1cccc(F)c1 [Compound 72, (S)-4-(3-Fluoro-phenyl)-6-oxo-1,4,5,6-tetrahydro-pyridine-3-carboxylic acid[4-chloro-5-(2-hydroxy-ethoxy)-2-methyl-phenyl]-amide]
7.63 | Cc1cc(Cl)c(OCCO)cc1NC(=O)C1=CNC(=O)C[C@H]1c1ccc(F)cc1 [Compound 73, (S)-4-(4-Fluoro-phenyl)-6-oxo-1,4,5,6-tetrahydro-pyridine-3-carboxylic acid[4-chloro-5-(2-hydroxy-ethoxy)-2-methyl-phenyl]-amide]
6.63 | Cc1cc(Cl)c(OCCO)cc1NC(=O)C1=CNC(=O)C[C@@H]1c1ccc(F)cc1 [Compound 74, (R)-4-(4-Fluoro-phenyl)-6-oxo-1,4,5,6-tetrahydro-pyridine-3-carboxylic acid[4-chloro-5-(2-hydroxy-ethoxy)-2-methyl-phenyl]-amide]
6.245 | O=C1C[C@H](c2ccc(F)cc2)C(C(=O)Nc2cc(OCCO)c(Cl)cc2Br)=CN1 [Compound 75, (R)-4-(4-Fluoro-phenyl)-6-oxo-1,4,5,6-tetrahydro-pyridine-3-carboxylic acid[2-bromo-4-chloro-5-(2-hydroxy-ethoxy)-phenyl]-amide]
7.375 | Cc1cc(Cl)c(OCC(C)O)cc1NC(=O)C1=CNC(=O)CC1c1cccc(F)c1 (stereo not shown) [Compound 77, 4-(3-Fluoro-phenyl)-6-oxo-1,4,5,6-tetrahydro-pyridine-3-carboxylic acid[4-chloro-5-(2-hydroxy-propoxy)-2-methyl-phenyl]-amide]
7.42 | COc1cc(C)c(NC(=O)C2=CN(CCO)C(=O)CC2c2ccc(F)cc2)cc1OC (stereo not shown) [Compound 79, 4-(4-Fluoro-phenyl)-1-(2-hydroxy-ethyl)-6-oxo-1,4,5,6-tetrahydro-pyridine-3-carboxylic acid(4,5-dimethoxy-2-methyl-phenyl)-amide]
5.76 | Cc1cc(Cl)c(OCC(O)CO)cc1NC(=O)C1=CNC(=O)C[C@H]1c1cccc(F)c1 (stereo partly drawn) [Compound 81, (S)-4-(3-Fluoro-phenyl)-6-oxo-1,4,5,6-tetrahydro-pyridine-3-carboxylic acid[4-chloro-5-(2,3-dihydroxy-propoxy)-2-methyl-phenyl]-amide]
7.975 | COc1cc(NC(=O)C2=CNC(=O)C[C@H]2c2cccc(F)c2)c(C)cc1F [Compound 82, (S)-4-(3-Fluoro-phenyl)-6-oxo-1,4,5,6-tetrahydro-pyridine-3-carboxylic acid(4-fluoro-5-methoxy-2-methyl-phenyl)-amide]

Further lines, the compound ahead of its results:

SMILES | pKi
Cc1cccc(NC(=O)C2=CNC(=O)C[C@H]2c2ccc(F)cc2)c1C [Compound 58, (S)-4-(4-Fluoro-phenyl)-6-oxo-1,4,5,6-tetrahydro-pyridine-3-carboxylic acid (2,3-dimethyl-phenyl)-amide] | 6.785
Cc1cc(C)c(Br)c(NC(=O)C2=CNC(=O)C[C@H]2c2ccc(F)cc2)c1 [Compound 60, (S)-4-(4-Fluoro-phenyl)-6-oxo-1,4,5,6-tetrahydro-pyridine-3-carboxylic acid(2-bromo-3,5-dimethyl-phenyl)-amide] | 6.86
Cc1cc(Cl)c(OCCO)cc1NC(=O)C1=CNC(=O)CC1c1cccc(F)c1 (stereo not shown) [Compound 62, 4-(3-Fluoro-phenyl)-6-oxo-1,4,5,6-tetrahydro-pyridine-3-carboxylic acid [4-chloro-5-(2-hydroxy-ethoxy)-2-methyl-phenyl]-amide] | 7.595
Cc1cccc(NC(=O)C2=CNC(=O)CC2c2cccc(F)c2)c1C (stereo not shown) [Compound 63, 4-(3-Fluoro-phenyl)-6-oxo-1,4,5,6-tetrahydro-pyridine-3-carboxylic acid(2,3-dimethyl-phenyl)-amide] | 7.405
COc1cc(NC(=O)C2=CNC(=O)CC2c2cccc(F)c2)c(C)cc1F (stereo not shown) [Compound 64, 4-(3-Fluoro-phenyl)-6-oxo-1,4,5,6-tetrahydro-pyridine-3-carboxylic acid(4-fluoro-5-methoxy-2-methyl-phenyl)-amide] | 8.17
O=C1CC(c2cccc(F)c2)C(C(=O)Nc2cccc3c2CCC3)=CN1 (stereo not shown) [Compound 66, 4-(3-Fluoro-phenyl)-6-oxo-1,4,5,6-tetrahydro-pyridine-3-carboxylic acid indan-4-ylamide] | 6.915
Cc1ccc(C(C)C)cc1NC(=O)C1=CNC(=O)C[C@H]1c1cccc(F)c1 [Compound 69, (S)-4-(3-Fluoro-phenyl)-6-oxo-1,4,5,6-tetrahydro-pyridine-3-carboxylic acid(5-isopropyl-2-methyl-phenyl)-amide] | 7.01
O=C1C[C@@H](c2ccc(F)cc2)C(C(=O)Nc2cc(OCCO)c(Cl)cc2Br)=CN1 [Compound 76, (S)-4-(4-Fluoro-phenyl)-6-oxo-1,4,5,6-tetrahydro-pyridine-3-carboxylic acid[2-bromo-4-chloro-5-(2-hydroxy-ethoxy)-phenyl]-amide] | 7.063
O=C1C[C@@H](c2cccc(F)c2)C(C(=O)Nc2cc(OCCO)c(Cl)cc2Br)=CN1 [Compound 78, (S)-4-(3-Fluoro-phenyl)-6-oxo-1,4,5,6-tetrahydro-pyridine-3-carboxylic acid[2-bromo-4-chloro-5-(2-hydroxy-ethoxy)-phenyl]-amide] | 7.695
Cc1ccc(C(C)O)cc1NC(=O)C1=CNC(=O)C[C@H]1c1ccc(F)cc1 (stereo partly drawn) [Compound 80, (S)-4-(4-Fluoro-phenyl)-6-oxo-1,4,5,6-tetrahydro-pyridine-3-carboxylic acid[5-(1-hydroxy-ethyl)-2-methyl-phenyl]-amide] | 7.59
Cc1ccccc1CNC(=O)C1=CNC(=O)C[C@H]1c1cccc(F)c1 [Compound 83, (S)-4-(3-Fluoro-phenyl)-6-oxo-1,4,5,6-tetrahydro-pyridine-3-carboxylic acid 2-methyl-benzylamide] | 6.17
